From patent US20250195530A1, “POLQ INHIBITORS” (ASTRAZENECA AB, priority 2022, published 2025)
Like-named read-outs stand apart in the source and are kept apart here.

Columns and labels:
[1] = system: DLD-1 BRCA2−/− cells; assay: Homologous recombination synthetic lethal inhibition of proliferation, DLD-1 BRCA2-/- (Cell Titre Glo 3D); type: cell-based; settings: Homo sapiens
Outline: (§1)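 DLD-1 BRCA2−/− and parental DLD-1 cells exposed to 10-point dose range (10 μM to 0.51 nM, 3-fold) in RPMI/10% FBS at 37 °C, with medium and compound replenished on day 6. Viability by Cell Titre Glo 3D luminescence at day 7 (DLD-1) or day 12 (BRCA2−/−); IC50 as concentration halving maximum signal.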

[2] = system: DLD-1 cells; assay: Inhibition of proliferation, DLD-1 BRCA2 wt control (Cell Titre Glo 3D); type: cell-based; settings: Homo sapiens
Outline: as §1

[3] = DLD-1, DLD-1 BRCA2-/- proliferation, column head only partly shown, read-out: POLQ PD Prolif Lumin (converted)
[4] = DLD-1, DLD-1 BRCA2 wt control proliferation, column head only partly shown, read-out: POLQ PD Prolif Lumin (converted)
[5] = DLD-1, first proliferation column (c5), DLD-1 BRCA2-/-, read-out: POLQ PD Prolif Lumin (converted)
[6] = DLD-1, second proliferation column (c6), DLD-1 BRCA2 wt control, read-out: POLQ PD Prolif Lumin (converted)
[7] = DLD-1, DLD-1 BRCA2 −/− cells, mean, read-out: POLQ PD Prolif Lumin BRCA2 −/− mean pIC50 (converted)
[8] = DLD-1, DLD1 BRCA2 wt cells, mean, read-out: POLQ PD Prolif Lumin DLD1 mean PIC50 (converted)
[9] = DLD-1, 288 h, DLD-1 BRCA2−/− cells, 12 days, read-out: POLQ PD Prolif Lumin BRCA2 −/− mean pIC50 (converted)
[10] = DLD-1, 168 h, DLD-1 BRCA2 wt cells, 7 days, read-out: POLQ PD Prolif Lumin DLD1 mean pIC50 (converted)
[11] = DLD-1, first proliferation column (c5), taken as DLD-1 BRCA2-/-, read-out: POLQ PD Prolif Lumin (converted)
[12] = DLD-1, second proliferation column (c6), taken as DLD-1 BRCA2 wt, read-out: POLQ PD Prolif Lumin (converted)
[13] = DLD-1, proliferation, luminescence, taken as DLD-1 BRCA2-/-, read-out: POLQ PD Prolif Lumin (converted)
[14] = DLD-1, proliferation, luminescence, second Prolif column (c6), taken as DLD-1 BRCA2 wt control, read-out: POLQ PD Prolif Lumin (converted)

CC(COc1ccc(-c2nc3c(OC4(C)CC4)ncnc3n2Cc2cccc(Cl)c2)c(Cl)c1)CC(=O)O (single isomer, unassigned) [Example T294, 4-(3-chloro-4-(9-(3-chlorobenzyl)-6-(1-methylcyclopropoxy)-9H-purin-8-yl)phenoxy)-3-methylbutanoic acid]
IC50 [1, 3]: 158 nM
IC50 [2, 4]: > 10 µM

Cc1ccnc(Cn2c(-c3ccc(NC(=O)NCCO)cc3Cl)nc3c(OC4(C)CC4)ncnc32)c1 [Example T132, 1-(3-chloro-4-(6-(1-methylcyclopropoxy)-9-((4-methylpyridin-2-yl)methyl)-9H-purin-8-yl)phenyl)-3-(2-hydroxyethyl)urea]
IC50 [1, 5]: 2000 nM
IC50 [2, 6]: > 10 µM

CC1(Oc2ncnc3c2nc(-c2ccc(OCCO)cc2Cl)n3Cc2cc(Cl)ccn2)CC1 [Example T15, 2-(3-chloro-4-(9-((4-chloropyridin-2-yl)methyl)-6-(1-methylcyclopropoxy)-9H-purin-8-yl)phenoxy)ethan-1-ol]
IC50 [1, 7]: 100 nM
IC50 [2, 8]: > 10 µM

Cc1ccc(Cn2c(-c3ccc(OCCN4CCNCC4)cc3Cl)nc3c(OC4(C)CC4)ncnc32)nc1 [Example L8, 8-(2-chloro-4-(2-(piperazin-1-yl)ethoxy)phenyl)-6-(1-methylcyclopropoxy)-9-((5-methylpyridin-2-yl)methyl)-9H-purine]
IC50 [1, 9]: 2000 nM
IC50 [2, 10]: > 10 µM

Cc1cnc(Cn2c(-c3ccc(OCCCN4CCCC4)cc3Cl)nc3c(OC4(C)CC4)ncnc32)s1 [Example T388, 2-((8-(2-chloro-4-(3-(pyrrolidin-1-yl)propoxy)phenyl)-6-(1-methylcyclopropoxy)-9H-purin-9-yl)methyl)-5-methylthiazole]
IC50 [1, 11]: 251 nM
IC50 [2, 12]: > 10 µM

Cc1ccnc(Cn2c(-c3ccc(CC(=O)N4CCNCC4)cc3Cl)nc3c(OC4(C)CC4)ncnc32)c1 [Example T495, 2-(3-chloro-4-(6-(1-methylcyclopropoxy)-9-((4-methylpyridin-2-yl)methyl)-9H-purin-8-yl)phenyl)-1-(piperazin-1-yl)ethan-1-one]
IC50 [1, 5]: 794 nM
IC50 [2, 6]: > 10 µM

CNC(=O)COc1cccc(-c2nc3c(OC4(C)CC4)ncnc3n2Cc2cc(C)ccn2)c1Cl [Example T120, 2-(2-chloro-3-(6-(1-methylcyclopropoxy)-9-((4-methylpyridin-2-yl)methyl)-9H-purin-8-yl)phenoxy)-N-methylacetamide]
IC50 [1, 5]: 158 nM
IC50 [2, 6]: > 6.31 µM

CC1(Oc2ncnc3c2nc(-c2ccc(OC4CCNCC4)cc2Cl)n3Cc2ccccc2)CC1 [Example D33, 9-benzyl-8-(2-chloro-4-(piperidin-4-yloxy)phenyl)-6-(1-methylcyclopropoxy)-9H-purine]
IC50 [1, 9]: 63.1 nM
IC50 [2, 10]: 3.16 µM

Cc1ccnc(Cn2c(-c3ccc(OCC(C)(C)O)cc3Cl)nc3c(OC4(C)CC4)ncnc32)c1 [Example 45, 1-(3-Chloro-4-(6-(1-methylcyclopropoxy)-9-((4-methylpyridin-2-yl)methyl)-9H-purin-8-yl)phenoxy)-2-methylpropan-2-ol]
IC50 ([1]; DLD-1, 288 h, DLD-1 BRCA2−/−, 12 days, Cell Titre Glo 3D, read-out: POLQ PD Prolif Lumin BRCA2 −/− Mean pIC50 (converted)): 200 nM
IC50 ([2]; DLD-1, 168 h, DLD-1 (BRCA2 wt control), 7 days, Cell Titre Glo 3D, read-out: POLQ PD Prolif Lumin DLD1 Mean pIC50 (converted)): > 10 µM

CC1(Oc2ncnc3c2nc(-c2ccc(OCCN4CCNCC4)cc2Cl)n3Cc2ccccc2)CCC1 [Example 12, 9-Benzyl-8-(2-chloro-4-(2-(piperazin-1-yl)ethoxy)phenyl)-6-(1-methylcyclobutoxy)-9H-purine]
IC50 [1, 9]: 126 nM
IC50 [2, 10]: 2 µM

Cc1csc(Cn2c(-c3ccc(OCCN4CCNCC4)cc3Cl)nc3c(OC4(C)CC4)ncnc32)n1 [Example T248, 2-((8-(2-chloro-4-(2-(piperazin-1-yl)ethoxy)phenyl)-6-(1-methylcyclopropoxy)-9H-purin-9-yl)methyl)-4-methylthiazole]
IC50 [1, 3]: 2000 nM
IC50 [2, 4]: > 10 µM

CC1(Oc2ncnc3c2nc(-c2ccc(OCCN4CC5(CC(O)C5)C4)cc2Cl)n3Cc2cc(Cl)ccn2)CC1 [Example R1, 2-(2-(3-chloro-4-(9-((4-chloropyridin-2-yl)methyl)-6-(1-methylcyclopropoxy)-9H-purin-8-yl)phenoxy)ethyl)-2-azaspiro[3.3]heptan-6-ol]
IC50 [1, 9]: 126 nM
IC50 [2, 10]: > 10 µM

CC(CCOc1ccc(-c2nc3c(OC4(C)CC4)ncnc3n2Cc2ccccc2C#N)c(Cl)c1)C(=O)O (racemic) [Example T400, 4-(3-chloro-4-(9-(2-cyanobenzyl)-6-(1-methylcyclopropoxy)-9H-purin-8-yl)phenoxy)-2-methylbutanoic acid]
IC50 [1, 13]: 251 nM
IC50 [2, 14]: > 10 µM

Cc1ccnc(Cn2c(-c3ccc(CCN4CCNCC4)cc3Cl)nc3c(OC4(C)CC4)ncnc32)c1 [Example T528, 8-(2-chloro-4-(2-(piperazin-1-yl)ethyl)phenyl)-6-(1-methylcyclopropoxy)-9-((4-methylpyridin-2-yl)methyl)-9H-purine]
IC50 [1, 5]: 398 nM
IC50 [2, 6]: 7.94 µM

FC(F)(F)C1(Oc2ncnc3c2nc(-c2ccc(OCCN4CCNCC4)cc2Cl)n3Cc2ccccc2)COC1 [Example T424, 9-benzyl-8-(2-chloro-4-(2-(piperazin-1-yl)ethoxy)phenyl)-6-((3-(trifluoromethyl)oxetan-3-yl)oxy)-9H-purine]
IC50 [1, 13]: 2000 nM
IC50 [2, 14]: 10 µM

CC1(Oc2ncnc3c2nc(-c2ccc(C(=O)N4CCNCC4)cc2Cl)n3Cc2ccccc2)CC1 [Example N3, (4-(9-benzyl-6-(1-methylcyclopropoxy)-9H-purin-8-yl)-3-chlorophenyl)(piperazin-1-yl)methanone]
IC50 [1, 9]: 794 nM
IC50 [2, 10]: > 10 µM

Cc1ccnc(Cn2c(-c3ccc(OC4CCS(=O)(=O)CC4)cc3Cl)nc3c(OC4(C)CC4)ncnc32)c1 [Example T335, 4-(3-chloro-4-(6-(1-methylcyclopropoxy)-9-((4-methylpyridin-2-yl)methyl)-9H-purin-8-yl)phenoxy)tetrahydro-2H-thiopyran 1,1-dioxide]
IC50 [1, 11]: 251 nM
IC50 [2, 12]: > 10 µM

CNCCCOc1ccc(-c2nc3c(OC4(C)CC4)ncnc3n2Cc2ncc(C)s2)c(Cl)c1 [Example T74, 3-(3-chloro-4-(6-(1-methylcyclopropoxy)-9-((5-methylthiazol-2-yl)methyl)-9H-purin-8-yl)phenoxy)-N-methylpropan-1-amine]
IC50 [1, 7]: 501 nM
IC50 [2, 8]: > 10 µM

Cc1ncc(Cn2c(-c3ccc(OCCN4CCNCC4)cc3Cl)nc3c(OC4(C)CC4)ncnc32)s1 [Example T249, 5-((8-(2-chloro-4-(2-(piperazin-1-yl)ethoxy)phenyl)-6-(1-methylcyclopropoxy)-9H-purin-9-yl)methyl)-2-methylthiazole]
IC50 [1, 3]: 3980 nM
IC50 [2, 4]: > 10 µM

Cc1cc(OCCN(C)C)ncc1-c1nc2c(OC3(C)CC3)ncnc2n1Cc1ccccc1 [Example G12, 2-((5-(9-benzyl-6-(1-methylcyclopropoxy)-9H-purin-8-yl)-4-methylpyridin-2-yl)oxy)-N,N-dimethylethan-1-amine]
IC50 [1, 9]: 316 nM
IC50 [2, 10]: > 10 µM

Cc1ccnc(Cn2c(-c3ccc(N4CCNC4=O)cc3Cl)nc3c(OC4(C)CC4)ncnc32)c1 [Example T107, 1-(3-chloro-4-(6-(1-methylcyclopropoxy)-9-((4-methylpyridin-2-yl)methyl)-9H-purin-8-yl)phenyl)imidazolidin-2-one]
IC50 [1, 5]: 398 nM
IC50 [2, 6]: > 10 µM

CC(CCOc1ccc(-c2nc3c(OC4(C)CC4)ncnc3n2Cc2c(Cl)cccc2Br)c(Cl)c1)C(=O)O (racemic) [Example T259, 4-(4-(9-(2-bromo-6-chlorobenzyl)-6-(1-methylcyclopropoxy)-9H-purin-8-yl)-3-chlorophenoxy)-2-methylbutanoic acid]
IC50 [1, 3]: 3160 nM
IC50 [2, 4]: > 10 µM
